Test results taken from ChEMBL document CHEMBL1201862, “PubChem BioAssay data set” (2004).
Values joined by “and” are separate entries in the source; they are usually repeats but may differ in a detail not shown here. Equal values may be shown once.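 48-hour exposure; five concentrations; linearly interpolated endpoints. Here, GI50 denotes the concentration required for 50% inhibition of growth.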 Active and inactive are the calls of the source. Cut-off read from the data, not from the text of the source: active = GI50 up to about 1.1 µM and inactive = higher.

Legend:
Experiment in all cases: DTP human tumour cell line panel, 48 h
[1] = test system: SK-MEL-28
[2] = test system: HOP-62
[3] = test system: OVCAR-4
[4] = test system: SF-539
[5] = test system: SF-295
[6] = test system: 786-0
[7] = test system: EKVX
[8] = test system: RPMI-8226
[9] = test system: NCI-H460
[10] = test system: IGROV-1
[11] = test system: HCT-15
[12] = test system: PC-3
[13] = test system: SNB-19
[14] = test system: MDA-MB-231
[15] = test system: UACC-62
[16] = test system: HCT-116
[17] = test system: DU-145
[18] = test system: A498
[19] = test system: HOP-92

Compound	GI50 [1]	GI50 [2]	GI50 [3]	GI50 [4]	GI50 [5]	GI50 [6]	GI50 [7]	GI50 [8]	GI50 [9]	GI50 [10]	GI50 [11] [µM]	GI50 [12]	GI50 [13]	GI50 [14]	GI50 [15]	GI50 [16]	GI50 [17]	GI50 [18]	GI50 [19]
Cc1nc(Cl)nc(Cl)c1C	> 100 µM (inactive)	> 100 µM (inactive)	> 100 µM (inactive)	> 100 µM (inactive)	> 100 µM (inactive)	> 100 µM (inactive)	> 100 µM (inactive)	> 100 µM (inactive)	> 100 µM (inactive)	> 100 µM (inactive)	> 100	> 100 µM (inactive)	> 100 µM (inactive)						
Cn1c2ccccc2c(=O)c2cccc(C(=O)NC(CCCNC(=N)N)C(=O)O)c21 (stereo not drawn)	> 100 µM (inactive)	> 100 µM (inactive)	> 100 µM (inactive)	> 100 µM (inactive)	> 100 µM (inactive)	> 100 µM (inactive)	> 100 µM (inactive)	> 100 µM (inactive)	> 100 µM (inactive)	30.1 µM (inactive)	> 100	> 100 µM (inactive)	> 100 µM (inactive)	> 100 µM (inactive)	> 100 µM (inactive)	> 100 µM (inactive)	> 100 µM (inactive)		
NC(N)=NCCC[C@H](N)C(=O)NCC(=O)N[C@@H](CC(=O)O)c1ncc(NC(=O)C(F)(F)F)o1	> 25 µM (inactive)	> 25 µM (inactive)	> 25 µM (inactive)	> 25 µM (inactive)	> 25 µM (inactive)	> 25 µM (inactive)	> 25 µM (inactive)		> 25 µM (inactive)	> 25 µM (inactive)	> 25	> 25 µM (inactive)			> 25 µM (inactive)	> 25 µM (inactive)	> 25 µM (inactive)	> 25 µM (inactive)	
OCCN(C1=NCCN1)/[N+](=C\c1ccccn1)[CH-]c1ccccn1	> 100 µM (inactive)	> 100 µM (inactive)	> 100 µM (inactive)	> 100 µM (inactive)	> 100 µM (inactive)	> 100 µM (inactive)	> 100 µM (inactive)	12.1 µM (inactive)	> 100 µM (inactive)	> 100 µM (inactive)	> 100	> 100 µM (inactive)		> 100 µM (inactive)	> 100 µM (inactive)	> 100 µM (inactive)	> 100 µM (inactive)	> 100 µM (inactive)	
Cc1c2ccccc2c(C)n2c1nc1cc(Cl)c(Cl)cc12	> 10 µM (inactive)	> 10 µM (inactive)	> 10 µM (inactive)	> 10 µM (inactive)	8.65 µM (inactive)	6.47 µM (inactive)	> 10 µM (inactive)	8.83 µM (inactive)	4.04 µM (inactive)	> 10 µM (inactive)	> 10	> 10 µM (inactive)	> 10 µM (inactive)	> 10 µM (inactive)	> 10 µM (inactive)	> 10 µM (inactive)	> 10 µM (inactive)		
CC1OC(OC2C(OC(=O)[C@]34CCC(C)(C)CC3C3=CCC5[C@@]6(C)C[C@H](O)[C@H](OC7OC(CO)C(O)C(O)C7N)[C@@](C)(C(=O)O)C6CC[C@@]5(C)C3(C)CC4)OCC(O)C2O)C(O)C(O)C1OC1OCC(O)C(O)C1O (stereo partly drawn)	> 100 µM (inactive)	> 100 µM (inactive)		> 100 µM (inactive)	> 100 µM (inactive)	> 100 µM (inactive)	> 100 µM (inactive)	> 100 µM (inactive)	> 100 µM (inactive)	> 100 µM (inactive)	> 100		> 100 µM (inactive)		> 100 µM (inactive)			> 100 µM (inactive)	> 100 µM (inactive)
COc1cc(C(=O)n2c3ccc(Br)cc3c3nc4ccccc4nc32)cc(OC)c1OC	> 100 µM (inactive)	> 100 µM (inactive)	> 100 µM (inactive)	23.8 µM (inactive)	64 µM (inactive)	44.8 µM (inactive)	> 100 µM (inactive)	> 100 µM (inactive)	> 100 µM (inactive)	> 100 µM (inactive)	> 100	> 100 µM (inactive)	51.6 µM (inactive)	72.8 µM (inactive)	42.6 µM (inactive)	> 100 µM (inactive)	> 100 µM (inactive)		54.5 µM (inactive)
C[C@@]1(Br)C[C@@](C)(Cl)[C@@H](Br)CC1/C=C/Cl (stereo partly drawn)	21.9 µM (inactive)	17 µM (inactive)	24.8 µM (inactive)	15.2 µM (inactive)	14.4 µM (inactive)	16.6 µM (inactive)		16 µM (inactive)	28.6 µM (inactive)	8.15 µM (inactive)	27	15.9 µM (inactive)	18.6 µM (inactive)	20.1 µM (inactive)	> 10 µM (inactive)	11 µM (inactive)			
COc1ccc(N[S+]([O-])c2ccccc2OC)cc1 (stereo not drawn)	54.8 µM (inactive)	37.2 µM (inactive)	53.7 µM (inactive)	18.2 µM (inactive)	31.7 µM (inactive)	43.3 µM (inactive)	38.9 µM (inactive)	18.7 µM (inactive)	16 µM (inactive)	7.87 µM (inactive)	5.16		36.2 µM (inactive)	15 µM (inactive)	2.07 µM (inactive)	13.9 µM (inactive)	27.5 µM (inactive)		
O=P(O)(CN1CCN(CP(=O)(O)c2ccccc2)CCN(CP(=O)(O)c2ccccc2)CC1)c1ccccc1	> 100 µM (inactive)	> 100 µM (inactive)	32.1 µM (inactive)	67.1 µM (inactive)	> 100 µM (inactive)	78 µM (inactive)	> 100 µM (inactive)	51.4 µM (inactive)	36 µM (inactive)	> 100 µM (inactive)			> 100 µM (inactive)		> 10 µM (inactive)	36.8 µM (inactive)	> 100 µM (inactive)	9.16 µM (inactive)	
CCOP(=O)(OCC)C(C)(CC)NC(=O)C(C(F)(F)F)C(F)(F)F (stereo not drawn)	> 100 µM (inactive)	> 100 µM (inactive)	> 100 µM (inactive)		> 100 µM (inactive)	40.4 µM (inactive) and 61.5 µM (inactive)	> 100 µM (inactive)	33.3 µM (inactive) and 21.9 µM (inactive)	> 100 µM (inactive)	> 100 µM (inactive)	> 100	> 100 µM (inactive)	> 100 µM (inactive)			> 100 µM (inactive)	> 100 µM (inactive)	> 100 µM (inactive)	> 57 µM (inactive)
S=C1Cc2c([nH]c3ccccc23)-c2ccccc2N1	> 100 µM (inactive)	25.9 µM (inactive)	> 100 µM (inactive)	43.6 µM (inactive)	98.6 µM (inactive)	31.3 µM (inactive)	40.4 µM (inactive)	> 100 µM (inactive)	35.4 µM (inactive)	65.3 µM (inactive)		21.5 µM (inactive)	34.4 µM (inactive)	42.9 µM (inactive)	72.3 µM (inactive)	25.1 µM (inactive)	41.3 µM (inactive)		32.3 µM (inactive)
COc1cc([C@H]2CC(=O)C[C@@H](c3cc(OC)c(OC)c(OC)c3)C23C(=O)c2ccccc2C3=O)cc(OC)c1OC	> 100 µM (inactive)	> 100 µM (inactive)	> 100 µM (inactive)	> 100 µM (inactive)	> 100 µM (inactive)	> 100 µM (inactive)	91.8 µM (inactive)	> 100 µM (inactive)	> 100 µM (inactive)	> 100 µM (inactive)	> 100	> 100 µM (inactive)	> 100 µM (inactive)	> 100 µM (inactive)	> 100 µM (inactive)	> 100 µM (inactive)	> 100 µM (inactive)		> 100 µM (inactive)
CC1=COC(C)(C=C(C#N)C#N)CC1 (stereo not drawn)	71 µM (inactive)	> 100 µM (inactive)	> 100 µM (inactive)	25.1 µM (inactive)	> 100 µM (inactive)	> 100 µM (inactive)	> 100 µM (inactive)	38.5 µM (inactive)	> 100 µM (inactive)	88.3 µM (inactive)	> 10		> 100 µM (inactive)	67.5 µM (inactive)	57.7 µM (inactive)	33 µM (inactive)	> 100 µM (inactive)	27 µM (inactive)	> 10 µM (inactive)
C=C1CC[C@@H](C)[C@](C)(CCc2ccoc2)C/C=C\C=C/1C(=O)O	21.9 µM (inactive)	44.8 µM (inactive)	39.5 µM (inactive)	19.6 µM (inactive)	38.8 µM (inactive)	46.6 µM (inactive)	64.6 µM (inactive)		30.2 µM (inactive)	51.4 µM (inactive)	35.2	28.9 µM (inactive)	> 100 µM (inactive)	59.2 µM (inactive)	31.2 µM (inactive)	21.8 µM (inactive)		58.6 µM (inactive)	62.2 µM (inactive)
NC1=NC(=O)C2(NN1)c1ccccc1-c1ccccc12	> 10 µM (inactive)	> 10 µM (inactive)		> 10 µM (inactive)	> 10 µM (inactive)	> 10 µM (inactive)		> 10 µM (inactive)	> 10 µM (inactive)	> 10 µM (inactive)	> 10	> 10 µM (inactive)	> 10 µM (inactive)			> 10 µM (inactive)		3.94 µM (inactive)	> 10 µM (inactive)
CCC(=O)N1NC(=O)C(CC)(CC)C1=O	> 100 µM (inactive)	> 100 µM (inactive)	> 100 µM (inactive)		> 100 µM (inactive)	> 100 µM (inactive)	> 100 µM (inactive)	> 100 µM (inactive)	> 100 µM (inactive)	> 100 µM (inactive)	> 100	> 100 µM (inactive)	> 100 µM (inactive)	> 100 µM (inactive)	> 100 µM (inactive)	> 100 µM (inactive)	> 100 µM (inactive)		
